Results reported in the supplement of paper PMC10307832.

Columns and labels:
Test in all cases: relative viability (nuclei count vs DMSO), 5 days (fraction); higher = more cells survive
NCI-H2126 = system: NCI-H2126
Outline: (§1)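 One day after seeding in 1536-well plates, lung cancer cell lines were dosed by pin tool. Dosing was either single-drug or a fixed anchor-drug dose plus five library-drug doses (not always all listed) in √10 steps. After 5 days, nuclei were stained in one fix-and-stain step and counted on 4× images, and relative viability is the nuclei count of treated wells over that of vehicle wells, given as the median of duplicate plates.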

NCI-H1395 = system: NCI-H1395
Outline: as §1

NCI-H647 = system: NCI-H647
Outline: as §1

NCI-H2009 = system: NCI-H2009
Outline: as §1

NCI-H1355 = system: NCI-H1355
Outline: as §1

NCI-H650 = system: NCI-H650
Outline: as §1

LU99A = system: LU99A
Outline: as §1

NCI-H322M = system: NCI-H322M
Outline: as §1

PC-14 = system: PC-14
Outline: as §1

BEN = system: BEN
Outline: as §1

HCC-15 = system: HCC-15
Outline: as §1

NCI-H2228 = system: NCI-H2228
Outline: as §1

NCI-H2405 = system: NCI-H2405
Outline: as §1

NCI-H838 = system: NCI-H838
Outline: as §1

NCI-H661 = system: NCI-H661
Outline: as §1

NCI-H23 = system: NCI-H23
Outline: as §1

LCLC-97TM1 = system: LCLC-97TM1
Outline: as §1

NCI-H2342 = system: NCI-H2342
Outline: as §1

201T = system: 201T
Outline: as §1

EPLC-272H = system: EPLC-272H
Outline: as §1

NCI-H460 = system: NCI-H460
Outline: as §1

NCI-H2085 = system: NCI-H2085
Outline: as §1

HCC-78 = system: HCC-78
Outline: as §1

CN1CCN(CCOc2cc(OC3CCOCC3)c3c(Nc4c(Cl)ccc5c4OCO5)ncnc3c2)CC1 [Saracatinib] + COc1cc2c(Oc3ccc(NC(=O)C4(C(=O)Nc5ccc(F)cc5)CC4)cc3F)ccnc2cc1OCCCN1CCOCC1 [Foretinib] (partner 0.25 µM)
relative viability (NCI-H2126; first compound 0.02 µM): 1.15
relative viability (NCI-H2126; first compound 0.2 µM): 1.22
relative viability (NCI-H2126; first compound 0.6325 µM): 1.17
relative viability (NCI-H2126; first compound 2 µM): 1.07
relative viability (NCI-H1395; first compound 0.02 µM): 1.08
relative viability (NCI-H1395; first compound 0.2 µM): 0.908
relative viability (NCI-H1395; first compound 0.6325 µM): 1.03
relative viability (NCI-H1395; first compound 2 µM): 0.856
relative viability (NCI-H647; first compound 0.02 µM): 0.997
relative viability (NCI-H647; first compound 0.2 µM): 1.14
relative viability (NCI-H647; first compound 0.6325 µM): 1.04
relative viability (NCI-H647; first compound 2 µM): 1.12
relative viability (NCI-H2009; first compound 0.02 µM): 1.22
relative viability (NCI-H2009; first compound 0.2 µM): 1.14
relative viability (NCI-H2009; first compound 0.6325 µM): 0.951
relative viability (NCI-H2009; first compound 2 µM): 1.03
relative viability (NCI-H1355; first compound 0.02 µM): 0.965
relative viability (NCI-H1355; first compound 0.2 µM): 0.991
relative viability (NCI-H1355; first compound 0.6325 µM): 1.1
relative viability (NCI-H1355; first compound 2 µM): 0.934
relative viability (NCI-H650; first compound 0.02 µM): 0.996
relative viability (NCI-H650; first compound 0.2 µM): 0.922
relative viability (NCI-H650; first compound 0.6325 µM): 1.03
relative viability (NCI-H650; first compound 2 µM): 1.03
relative viability (LU99A; first compound 0.02 µM): 0.811
relative viability (LU99A; first compound 0.2 µM): 0.562
relative viability (LU99A; first compound 0.6325 µM): 0.831
relative viability (LU99A; first compound 2 µM): 0.536
relative viability (NCI-H322M; first compound 0.02 µM): 1.01
relative viability (NCI-H322M; first compound 0.2 µM): 0.921
relative viability (NCI-H322M; first compound 0.6325 µM): 0.826
relative viability (NCI-H322M; first compound 2 µM): 0.403
relative viability (PC-14; first compound 0.02 µM): 0.986
relative viability (PC-14; first compound 0.2 µM): 0.721
relative viability (PC-14; first compound 0.6325 µM): 0.612
relative viability (PC-14; first compound 2 µM): 0.209
relative viability (BEN; first compound 0.02 µM): 0.753
relative viability (BEN; first compound 0.6325 µM): 0.707
relative viability (BEN; first compound 2 µM): 0.476
relative viability (HCC-15; first compound 0.02 µM): 1.14
relative viability (HCC-15; first compound 0.2 µM): 0.975
relative viability (HCC-15; first compound 0.6325 µM): 1.12
relative viability (HCC-15; first compound 2 µM): 1.05
relative viability (NCI-H2228; first compound 0.02 µM): 0.765
relative viability (NCI-H2228; first compound 0.2 µM): 0.733
relative viability (NCI-H2228; first compound 0.6325 µM): 0.873
relative viability (NCI-H2228; first compound 2 µM): 0.591
relative viability (NCI-H2405; first compound 0.02 µM): 1.03
relative viability (NCI-H2405; first compound 0.2 µM): 0.94
relative viability (NCI-H2405; first compound 0.6325 µM): 0.98
relative viability (NCI-H2405; first compound 2 µM): 0.658
relative viability (NCI-H838; first compound 0.02 µM): 1.05
relative viability (NCI-H838; first compound 0.2 µM): 0.908
relative viability (NCI-H838; first compound 0.6325 µM): 0.938
relative viability (NCI-H838; first compound 2 µM): 0.916
relative viability (NCI-H661; first compound 0.02 µM): 1.02
relative viability (NCI-H661; first compound 0.2 µM): 0.948
relative viability (NCI-H661; first compound 0.6325 µM): 0.993
relative viability (NCI-H661; first compound 2 µM): 0.45
relative viability (NCI-H23; first compound 0.02 µM): 0.825
relative viability (NCI-H23; first compound 0.2 µM): 0.815
relative viability (NCI-H23; first compound 0.6325 µM): 1
relative viability (NCI-H23; first compound 2 µM): 0.545
relative viability (LCLC-97TM1; first compound 0.02 µM): 1.06
relative viability (LCLC-97TM1; first compound 0.2 µM): 0.763
relative viability (LCLC-97TM1; first compound 0.6325 µM): 0.96
relative viability (LCLC-97TM1; first compound 2 µM): 0.825
relative viability (NCI-H2342; first compound 0.02 µM): 0.84
relative viability (NCI-H2342; first compound 0.2 µM): 0.856
relative viability (NCI-H2342; first compound 0.6325 µM): 1.11
relative viability (NCI-H2342; first compound 2 µM): 0.925
relative viability (201T; first compound 0.02 µM): 1.16
relative viability (201T; first compound 0.2 µM): 0.752
relative viability (201T; first compound 0.6325 µM): 1
relative viability (201T; first compound 2 µM): 0.693
relative viability (EPLC-272H; first compound 0.02 µM): 0.403
relative viability (EPLC-272H; first compound 0.2 µM): 0.73
relative viability (EPLC-272H; first compound 0.6325 µM): 0.646
relative viability (EPLC-272H; first compound 2 µM): 0.435
relative viability (NCI-H460; first compound 0.02 µM): 1.02
relative viability (NCI-H460; first compound 0.2 µM): 0.882
relative viability (NCI-H460; first compound 0.6325 µM): 1.06
relative viability (NCI-H460; first compound 2 µM): 0.867
relative viability (NCI-H2085; first compound 0.02 µM): 0.986
relative viability (NCI-H2085; first compound 0.2 µM): 0.839
relative viability (NCI-H2085; first compound 0.6325 µM): 0.751
relative viability (NCI-H2085; first compound 2 µM): 0.668
relative viability (HCC-78; first compound 0.02 µM): 0.534
relative viability (HCC-78; first compound 0.6325 µM): 0.678
relative viability (HCC-78; first compound 2 µM): 0.413
